Experimental data from US20240109843A1, “BENZALDEHYDE COMPOUNDS WITH DIRECT POLYMER DESTABILIZING EFFECTS TO TREAT SICKLE CELL DISEASE” (VIRGINIA COMMONWEALTH UNIVERSITY, priority 2018, published 2024).
Several values for one entry are separate records, joined by “and”; a condition that tells them apart may be missing. Equal entries are not always repeated.

Tests used:
[1] = molecular target: T1, sickle Hb (Homo sapiens, UniProt P69905); assay: Oxygen equilibrium (P50 shift) of lysates from treated sickle blood; assay type: cell-based; settings: 0.5, 1 and 2 mM, SS blood
T1 construct: Blood suspensions from subjects with homozygous SCD; from tissue; host or cells: blood suspensions (20% hematocrit) from donors with homozygous SCD; lysates of the treated red cells
T1 sequence (P69905 2-142 limits assumed): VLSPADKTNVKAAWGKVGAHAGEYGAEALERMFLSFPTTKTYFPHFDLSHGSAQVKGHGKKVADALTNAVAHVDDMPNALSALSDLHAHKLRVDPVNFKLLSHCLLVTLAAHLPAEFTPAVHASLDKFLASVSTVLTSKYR
Experimental: Blood suspensions from subjects with homozygous SCD (resuspended in Hemox™ buffer to a final hematocrit 20%) were incubated under air in the absence or presence of the compounds (0.5 mM, 1 mM and 2 mM) at 37° C. for 1 h to ensure that binding had attained equilibrium. The suspensions were then incubated under hypoxic conditions (2.5% oxygen/97.5% nitrogen) at 37° C. for 1 h. Aliquot samples were fixed with 2% glutaraldehyde solution without exposure to air, and then subjected to microscopic morphological analysis of bright field images (at 40× magnification) of single layer cells on an Olympus BX40 microscope fitted with an Infinity Lite B camera (Olympus), and the coupled Image Capture software. The residual samples were washed in phosphate-buffer saline, and hemolyzed in hypotonic lysis buffer for subsequent Hb-modification and oxygen equilibrium analyses.
For oxygen equilibrium studies, approximately 100 μL aliquot samples from the above clarified lysate were added to 4 mL of 0.1M potassium phosphate buffer, pH 7.0, in cuvettes and subjected to hemoximetry analysis using a Hemox™ Analyzer (TCS Scientific Corp.) to assess P50 shifts. Degree of P50 shift (ΔP50) was expressed as percentage fractions of control DMSO-treated samples.

[2] = molecular target: T2, Hb (Homo sapiens, UniProt P69905); assay: Affinity (KD) for Hb; assay type: binding
T2 sequence (P69905 2-142 limits assumed): as above
T2 sequence (P68871 2-147 partner limits assumed): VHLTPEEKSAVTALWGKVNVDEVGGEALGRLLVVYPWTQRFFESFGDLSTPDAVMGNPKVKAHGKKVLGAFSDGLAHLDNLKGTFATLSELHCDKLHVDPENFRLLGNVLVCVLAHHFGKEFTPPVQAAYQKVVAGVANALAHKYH

[3] = molecular target: T3, intracellular Hb (Mus musculus, UniProt P01942); assay: In vivo modification of intracellular Hb in wild-type mice; parameters: species or system C57BL/6 mice
T3 construct: from tissue; host or cells: blood (red cell lysates) of dosed C57BL/6 mice
T3 sequence (P01942 2-142 limits assumed): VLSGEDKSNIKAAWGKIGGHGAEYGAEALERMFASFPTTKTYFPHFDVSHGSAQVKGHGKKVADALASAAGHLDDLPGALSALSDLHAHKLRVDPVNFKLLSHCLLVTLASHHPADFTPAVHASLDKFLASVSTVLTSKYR
T3 sequence (P02088 2-147 partner limits assumed): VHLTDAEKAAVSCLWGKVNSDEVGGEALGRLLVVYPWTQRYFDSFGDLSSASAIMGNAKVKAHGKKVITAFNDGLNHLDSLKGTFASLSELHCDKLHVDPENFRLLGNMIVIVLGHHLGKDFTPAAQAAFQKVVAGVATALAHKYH
Procedure, shortened: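 C57BL/6 mice got a single 150 mg/kg dose, i.p. in 30% PEG300, or i.p. and oral in an alternative excipient. Blood was taken before dosing and at 1, 3 and 6 h (or 1, 3 or 5 h), then lysed. Lysates were analysed by cation-exchange HPLC for Hb adducts and by oxygen equilibrium for the p50 shift.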

[4] = molecular target: T2, Hb; assay: Drug partitioning studies, fixed and unfixed Hb adducts in non-sickling AA blood; assay type: cell-based; parameters: Hemoglobin modification, studies using non-sickling AA blood; from tissue; host or cells: non-sickling (AA) human blood, red blood cells; settings: 2 mM
Procedure, shortened: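 Non-sickling blood was incubated with test molecules and lysed either in water (unfixed) or in 50 mM sodium borohydride (fixed). Hb adducts were quantified by cation-exchange HPLC as a fraction of total Hb. The partitioning ratio is fixed over unfixed modification and reflects intracellular Hb binding after RBC membrane permeation.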

[5] = tested on: RBCs from donors with homozygous SCD; assay: Oxygen-independent sickle inhibition in SS blood suspensions under anoxia (100% nitrogen); assay type: cell-based, human; settings: Homo sapiens, 2 mM, 4 biological replicates, read-out: % Sickling Inhibition (Anoxia)
Procedure, shortened: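 After room-air re-oxygenation for 15 min to reverse sickling, SS blood suspensions were held under 100% nitrogen for 1 h (screening) or up to 2.5 h (time course), with aliquots fixed at set intervals. Sickled versus non-sickled cells were counted by bright-field microscopy to calculate sickle inhibition.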

[6] = molecular target: T4, Hb (Mus musculus, UniProt P01942); assay: In vivo Hb oxygen affinity shift (Δp50) in wild-type mice; parameters: species or system C57BL/6 mice; settings: for increase in Hb affinity (Δp50): IP 150 mg/kg
T4 construct: from tissue; host or cells: blood (red cell lysates) of dosed C57BL/6 mice
T4 sequence (P01942 2-142 limits assumed): as the sequence (P01942 2-142 limits assumed) above
T4 sequence (P02088 2-147 partner limits assumed): as the sequence (P02088 2-147 partner limits assumed) above
Experimental: We tested in vivo pharmacologic (pharmacodynamics) effects of select PP compounds in C57BL/6 mice. The animals were treated with a single intraperitoneal (IP) (150 mg/kg body weight) dose of PP6, PP10, PP14, and TD7, which were formulated with 30% PEG300. Blood samples were obtained prior to treatment (0) and 1, 3 and 6 h post-treatment, via submandibular bleeding, and subjected to hemolysis using standard methods. Clarified lysates, free of cell debris and red blood cell ghosts were analyzed by cation-exchange HPLC to determine the levels of drug-modified hemoglobin (adducts); and to conduct oxygen equilibrium studies to determine degrees of shift in p50 values using methodologies described earlier for in vitro studies on human samples. In a subsequent follow-up experiment, a new excipient obtained from Catalent Pharma Solutions was also used to formulate PP14 and used for a single intraperitoneal (IP) and oral (150 mg/kg body weight) dose. Blood samples were obtained prior to treatment (0) and 1, 3 or 5 h post-treatment, via submandibular bleeding, and used to determine the levels of drug-modified hemoglobin (adducts); and to conduct oxygen equilibrium studies to determine degrees of shift in p50 values as described above.

[7] = Single-dose oral pharmacokinetics in rats; assay type: in vivo, Sprague Dawley rats; settings: oral administration, data not shown
Experimental: Single doses of each compound were administered as oral suspensions by gavage in 0.5% carboxy methylcellulose at 100 mg/kg. Whole blood levels were collected for at least 72 hours after dose administration. Bioanalyses were performed with liquid chromatography-tandem mass spectrometry […].
Single-dose pharmacokinetics (PK) in male Sprague Dawley (SD) rats (n=4) were assessed for each compound, and the maximum or peak whole blood concentration and area under the curve are shown in Table 5.

- Kd [2]: 150 µM
- Hb modification ([3]; IP 150 mg/kg, 30% PEG300, 1 hr): 7%
- Hb modification ([3]; IP 150 mg/kg, 30% PEG300, 3 hr): 13%
- modified Hb ([3]; IP 150 mg/kg, 30% PEG300, 6 h, 150 mg/kg): 19.1±0.6% and 19%
- Hb modification ([3]; IP 150 mg/kg, Catalent excipient, 1 hr): 21.8±1.6%
- Hb modification ([3]; IP 150 mg/kg, Catalent excipient, 3 hr): 37.7±5.0%
- Hb modification ([3]; IP 150 mg/kg, Catalent excipient, 5 hr): 51.1±4.3%
- modified Hb ([3]; oral gavage 150 mg/kg, Catalent excipient, 1 hr): 14.5±3.7%
- modified Hb ([3]; oral gavage 150 mg/kg, Catalent excipient, 3 hr): 16.3±2.2%
- modified Hb ([3]; oral gavage 150 mg/kg, Catalent excipient, 5 hr): 17.1±4.4%
- Fixed Adducts (%) ([4]; 6 biological replicates): 96.1 ± 1.1%
- Unfixed Adduct (%) ([4]; 6 biological replicates): 91.8 ± 11.6%
- Partitioning Ratio (%) ([4]; fixed relative to unfixed adducts): 102.2 ± 8.0%
- increase in Hb affinity (Δp50) ([6]; 30% PEG300): 12%
- increase in Hb affinity (Δp50) ([6]; Catalent excipient, 5 hr): 43.5±7.7%
- increase in Hb oxygen affinity (Δp50) ([6]; oral gavage 150 mg/kg, Catalent excipient): 10.3±1.5%
Compound: COC(=O)c1ccc(COc2cccc(O)c2C=O)cn1 [PP14, Methyl 5-((2-formyl-3-hydroxyphenoxy)methyl)picolinate]
- increase of Hb affinity for oxygen in sickle blood (in words) [1]: only marginally increasing Hb affinity for oxygen
- inhibition at 2000 µM [5]: 80.5 ± 17.4%
- metabolism upon oral administration [7]: rapidly metabolizes into its carboxylic acid metabolite
